These results are taken from US20260060944A1, “PHARMACEUTICAL COMPOSITION AND USE THEREOF” (priority 2022, published 2026).

Assay [1] relates to glioblastoma (T98G) cell line. Briefly: Cell survival rate (MTS) of T98G cells. The format is cell-based, Human. The protocol:
(§1) Human cancer cell lines, including non-small cell lung cancer (A549), glioblastoma (U87), glioblastoma (T98G), erythroleukemia type cell line (K-562), acute monocytic leukemia (THP-1), hepatocellular carcinoma (HepG2), colorectal cancer (HCT116), ovarian cancer (TOV-21G), triple-negative breast cancer (MDA-MB-231), or drug-resistant human breast cancer (MCF7-resistant), were cultured in media supplemented with 10% (v/v) fetal bovine serum (FBS) (Penicillin-Streptomycin Solution, ACE Biolabs, CC1009), glutamine-enriched Nutrient Mixture F-12 Ham Kaighn's Modification (F-12/K, SIGMA-ALDRICH, USA), and RPMI-1640 (HiMedia Laboratories LLC, USA). The cell lines were separately incubated in a 5% CO2 atmosphere at 37° C. using a controlled incubator (Astec-SCA-165DS).
(§2) Different cancer cell lines were seeded in 96-well plates and allowed to adhere for 24 hours. Cells were then treated with combinations of three drugs, while untreated cells served as the control group. 20 μL of MTS reagent (Promega, USA) was added to each well and incubated at 37° C. for one hour. Optical density (OD) was measured at 490 nm using an ELISA detector (BioTek EPOCH2) to evaluate the ell viability and proliferation by using the following formula: […]
(§3) In some embodiments of the present invention, drug concentrations used for testing cancer cell lines is in nM and the effective dose range ranged from 0.8 nM to 83 nM.
To evaluate the inhibitory effect of the pharmaceutical composition of the present invention on the survival rate of glioblastoma (T98G) cell line, analysis on survival rate was performed.
The active copper ion used in this study was copper gluconate.

Assay [2] deals with glioblastoma (U-87) cell line. Briefly: Cell survival rate (MTS) of U-87 cells. The format is cell-based, Human. The protocol: as §1, §2, §3
To evaluate the inhibitory effect of the pharmaceutical composition of the present invention on the survival rate of glioblastoma (U-87) cell line, analysis on survival rate was performed.
The active copper ion used in this study was copper gluconate. […] Using the pharmaceutical composition, the concentrations could be reduced while achieving a higher inhibition rate.

The subject of assay [3] is human non-small cell lung cancer (A549) cell lines. Description: Cell survival rate (MTS) of A549 cells. The format is cell-based. Conditions: for reduction in survival rate: individually administered at concentrations ranging from 2 to 80 nM. On the procedure:
as §1, §2, §3
To evaluate whether the pharmaceutical composition containing various pharmacologically active ions could produce synergistic drug effects, tests were conducted on human non-small cell lung cancer (A549) cell lines. The dose units in Table 2 are expressed in nM. The pharmacologically active ion used in this study was gluconate ion.
To evaluate whether varying dosages of the pharmaceutical composition of the present invention could inhibit the survival rate of human non-small cell lung cancer cell line (A549), cell survival analyses of A549 were conducted.
In this experiment, the pharmacologically active copper ion was cupric in the form of copper gluconate.

The test system of assay [4] is human lung squamous cell carcinoma (H520) cell line. Briefly: In vivo tumor suppression, H520 subcutaneous tumor model in nude mice. Also noted: species or system Balb/c nude mice. Conditions: H520 tumors in nude mice. The source says: (§4) Female, 5-week-old Balb/c CAnN.Cg-Foxnlnu/CrlNarl nude mice were obtained from the National Laboratory Animal Center. […] Experiments commenced when they reached six weeks of age.
(§5) Nude mice of six weeks of age were used to establish two lung epithelial carcinoma and animal models. 1×10^7 cells of Human non-small cell lung cancer (NSCLC) cell line A549 and of human lung squamous carcinoma cell line H520, provided by the Food Industry Research and Development Institute in Taiwan, were subcutaneously injected 100 μL into the dorsal area near the right hind limb.
(§6) H520 model: 7 mice per group, administered orally once daily for 13 days. The pharmacologically active multivalent ions used were copper ions in the form of copper gluconate.
(§7) Tumor volume was measured weekly using a tumor measurement device (TM900, Peira, Turnhout, Belgium). After five weeks of drug administration, the mice were sacrificed, and tumors were excised from the right hind limb. Tumor volume was calculated based on the longest and shortest diameters using the formula: […]
(§8) The tumors were then weighed and recorded. Tumor inhibition rates were calculated using the control group as a baseline: […]
A tumor model was established in nude mice via subcutaneous injection. Tumor size was measured over 14 days, after which the mice were then divided into six groups and treated with the pharmaceutical composition. The pharmaceutical-using group continued to be fed the test drug by oral gavage. Due to the rapid growth rate of H520 tumors in vivo, animals were sacrificed when tumors reached a specific size. Tumor model nude mice were sacrificed after 13 days of administration to evaluate changes in tumor growth and observe the inhibitory effect of the test drug on tumors.

Assay [5] shares this test system. Described as above. The arrangement: species or system Balb/c nude mice. The note with it: H520 tumors in nude mice, oral once daily.
Assay [6] relates to human non-small cell lung cancer (A549) cell line. Briefly: In vivo tumor suppression, A549 subcutaneous tumor model in nude mice. Also noted: species or system Balb/c nude mice. Conditions: A549 tumors in nude mice; for Tumor Weight: after sacrifice.
Source text: as §4, §5
A549 model: 6 mice per group, administered orally once daily for 25 days.
as §6, §7, §8
A tumor model was established in nude mice via subcutaneous injection. Tumor size was monitored for 14 days, after which the mice were divided into six groups and treated with the pharmaceutical composition. The pharmaceutical-using group continued to be fed the test drug by oral gavage.

[7] abbreviates: oral once daily for 13 days, when sacrificed.
The mark [8] stands for this setting: oral once daily for 25 days, when sacrificed.
[9] abbreviates: oral once daily, Day 7 of administration.

In the case of `CCN(CC)C(=S)SSC(=S)N(CC)CC` [Disulfiram], the “Survival Rate (%)” value in assay [1] (single agent 16 nM) is 96.37%; in assay [1] (single agent 41 nM), 97.27%; in assay [1] (single agent 83 nM), 96.15%; in assay [2] (single agent 16 nM) it was 102.66%; in assay [2] (single agent 41 nM), 101.02%; in assay [2] (single agent 83 nM), 63.98%. The “Survival Rate (%)” value in assay [3] (single agent 1 nM (Table 2)) came to 99.58%; in assay [3] (single agent 80 nM (Table 3)), 93.85%.

As to `COc1cc2ncnc(Nc3ccc(F)c(Cl)c3)c2cc1OCCCN1CCOCC1` [Group S4, Gefitinib], the “Tumor Weight” value in assay [4] (after sacrifice) is 0.981 g; in assay [6], 0.197 g. Moreover, the “Tumor Volume” value stood at 1653.1 mm^3 in assay [4] (setting [7]); 506.4 mm^3 in assay [4] (oral once daily, Day 7); 259.6 mm^3 in assay [5] (Day 4 of administration); 898.6 mm^3 in assay [5] (Day 9); 1290.0 mm^3 in assay [5] (Day 11); 239.6 mm^3 in assay [6] (setting [8]). Besides, the “Tumor Volume” value in assay [6] (setting [9]) is 54.2 mm^3; in assay [6] (oral once daily, Day 11) it was 69.5 mm^3; in assay [6] (oral once daily, Day 14) it was 82.0 mm^3; in assay [6] (oral once daily, Day 17) it was 102.8 mm^3; in assay [6] (oral once daily, Day 20), 141.3 mm^3; in assay [6] (oral once daily, Day 23), 202.6 mm^3.

Take `O=C(Nc1ccc([N+](=O)[O-])cc1Cl)c1cc(Cl)ccc1O` [Niclosamide]: the “Survival Rate (%)” value in assay [1] (single agent 8 nM) was determined as 92.50%; in assay [1] (single agent 16 nM), 87.87%; in assay [2] (single agent 8 nM) it was 89.33%; in assay [2] (single agent 16 nM), 88.60%; in assay [3] (single agent 2 nM (Table 3)), 112.66%; in assay [3] (single agent 6 nM (Table 2)), 98.00%. For the same molecule, the “Tumor Weight” value in assay [4] (after sacrifice) was determined as 0.955 g; in assay [6], 0.330 g. Further, the “average tumor weight inhibition rates compared to Group S1” value amounted to 30.5% in assay [4] (after sacrifice) and 13.5% in assay [6] (following sacrifice). The figures for the “tumor volume inhibition rates compared to Group S1” value in assay [4] (at the time of sacrifice) and in assay [6] (at the time of sacrifice) were 30.49% and 12.78%, respectively. The “Tumor Volume” value in assay [4] (setting [7]) is reported as 1604.3 mm^3; in assay [4] (oral once daily, Day 7), 538.8 mm^3; in assay [5] (Day 4 of administration), 269.6 mm^3; in assay [5] (Day 9) it was 802.4 mm^3; in assay [5] (Day 11), 1204.1 mm^3; in assay [6] (setting [8]), 396.1 mm^3. For the same molecule, the “Tumor Volume” value in assay [6] (setting [9]) amounted to 73.4 mm^3; in assay [6] (oral once daily, Day 11), 89.7 mm^3; in assay [6] (oral once daily, Day 14), 136.3 mm^3; in assay [6] (oral once daily, Day 17), 179.6 mm^3; in assay [6] (oral once daily, Day 20), 219.0 mm^3; in assay [6] (oral once daily, Day 23), 319.8 mm^3. Besides, the “reduction in survival rate” value in assay [3] is on record as “no significant reduction in survival rate”.

Regarding `[Ca]` [calcium], the “Survival Rate (%)” value in assay [3] (single agent 1 nM (Table 2)) was found to be 103.98%.

`[Fe+2]` [ferrous]: the “Survival Rate (%)” value in assay [3] (single agent 1 nM (Table 2)) was determined as 106.27%.

As for `[Mg]` [magnesium], the “Survival Rate (%)” value in assay [3] (single agent 1 nM (Table 2)) turned out to be 100.52%.

For `[Mn+2]` [manganese], the “Survival Rate (%)” value in assay [3] (single agent 1 nM (Table 2)) amounted to 104.35%.

With `[Zn+2]` [zinc], the “Survival Rate (%)” value in assay [3] (single agent 1 nM (Table 2)) turned out to be 104.71%.

On to copper gluconate [cupric], for which the “Survival Rate (%)” value is 102.03% in assay [1] (single agent 16 nM); 102.19% in assay [1] (single agent 41 nM); 98.35% in assay [1] (single agent 83 nM); 103.71% in assay [2] (single agent 16 nM); 103.97% in assay [2] (single agent 41 nM); 101.73% in assay [2] (single agent 83 nM). For the same molecule, the “Survival Rate (%)” value in assay [3] (single agent 1 nM (Table 2)) was found to be 103.70%; in assay [3] (single agent 80 nM (Table 3)) it was 109.28%. The “reduction in survival rate” value in assay [3] is “no significant reduction in survival rate”.
